Source: US5580865A, “2,2-disubstituted cephem sulphones” (Farmitalia Carlo Erba S.r.l., priority 1992, dated 1996)

Target: T1, human leukocyte elastase (HLE) (Homo sapiens, UniProt P08246)
T1 construct: purchased Calbiochem
T1 sequence (P08246 30-247 limits assumed): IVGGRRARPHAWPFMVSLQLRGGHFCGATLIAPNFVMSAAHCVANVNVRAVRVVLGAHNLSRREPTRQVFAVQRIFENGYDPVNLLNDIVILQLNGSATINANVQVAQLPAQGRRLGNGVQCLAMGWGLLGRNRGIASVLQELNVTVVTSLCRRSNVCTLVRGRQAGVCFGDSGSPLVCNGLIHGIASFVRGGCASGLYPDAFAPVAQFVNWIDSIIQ
Assay: Kinetic parameters of HLE inhibition (fluorogenic substrate, steady-state KI^ss and K5/KI)
Assay type: biochemical
Conditions: HLE (Calbiochem), 37° C., pH 7.4 phosphate buffer, 1% DMSO, 1% MeCN; for kinact/KI: read-out: K5 /KI (rate of formation of the HLE-inhibitor complex); for Ki: read-out: KI^ss (apparent dissociation constant of the HLE-inhibitor complex at steady state)
Experimental: Kinetic parameters of HLE (Calbiochem) were determined at 37° C., 0.027M pH 7.4 phosphate buffer, 1% DMSO, 1% MeCN, NaCl (I=0.15), by monitoring the release of 7-amino-4-methylcoumarin (fluorescence detection) from N-methoxysuccinyl-alanyl-prolyl-valyl-7-amido-4-methylcoumarin as the substrate, according to the equations: [formula] wherein [P], [I], [S]=product, inhibitor, and substrate concentration
Km =Michaelis constant for the enzyme substrate pair (independently determined under the same experimental conditions)

kinact/KI [M⁻¹ s⁻¹]	Ki [nM]	Compound
600000	1	CO[C@H]1C(=O)N2C(C(=O)C(C)(C)C)=C(C)C(Cc3ccc([N+](=O)[O-])cc3)(Sc3nnnn3C)S(=O)(=O)[C@H]12 (stereo partly drawn) [Compound 6, 4-tert-Butylcarbonyl-7α-methoxy-3-methyl-2-(1-methyl-1,2,3,4-tetrazol-5-yl)thio-2-(4-nitrobenzyl)-3-cephem 1,1-dioxide]
1.3e+07	< 1	CO[C@H]1C(=O)N2C(C(=O)C(C)(C)C)=C(C)C(C)(Sc3nc(=O)c(OC(c4ccccc4)c4ccccc4)nn3C)S(=O)(=O)[C@H]12 (stereo partly drawn) [Compound 11, 2-(6-Benzhydryloxy-2-methyl-5-oxo-2,5-dihydro-1,2,4-triazin-3-yl)thio-4-tert-butylcarbonyl-2,3-dimethyl-7α-methoxy-3-cephem 1,1-dioxide]
1.4e+06	3	CO[C@H]1C(=O)N2C(C(=O)C(C)(C)C)=C(CSc3nnnn3C)C(C)(Sc3nnnn3C)S(=O)(=O)[C@H]12 (stereo partly drawn) [Compound 28, 4-tert-Butylcarbonyl-7α-methoxy-2-methyl-2-(1-methyl-1,2,3,4-tetrazol-5-yl)thio-3-(1-methyl-1,2,3,4-tetrazol-5-yl)thiomethyl-3-cephem 1,1-dioxide]
160000	4	CO[C@H]1C(=O)N2C(C(=O)C(C)(C)C)=C(C)C(Cc3ccccc3)(Sc3nc(=O)c(OCc4ccccc4)nn3C)S(=O)(=O)[C@H]12 (stereo partly drawn) [Compound 46, 2-Benzyl-2-(6-benzyloxy-2,5-dihydro-2-methyl-5-oxo-1,2,4-triazin-3-yl)thio-4-tert-butylcarbonyl-7α-methoxy-3-methyl-3-cephem 1,1-dioxide]
200000	7	CO[C@H]1C(=O)N2C(C(=O)C(C)(C)C)=C(C)C(Cc3ccc(C(=O)O)cc3)(Sc3nnnn3C)S(=O)(=O)[C@H]12 (stereo partly drawn) [Compound 32, 4-tert-Butylcarbonyl-2-(4-carboxybenzyl)-7α-methoxy-3-methyl-2-(1-methyl-1,2,3,4-tetrazol-5-yl)thio-3-cephem 1,1-dioxide]
77000	1	CO[C@H]1C(=O)N2C(C(=O)C(C)(C)C)=C(C)C(Cc3ccc(C(=O)OC(c4ccccc4)c4ccccc4)cc3)(Sc3nnnn3C)S(=O)(=O)[C@H]12 (stereo partly drawn) [Compound 30, 2-(4-benzhydryloxycarbonylbenzyl)-4-tert-Butylcarbonyl-7α-methoxy-3-methyl-2-(1-methyl-1,2,3,4-tetrazol-5-yl)thio-3-cephem1,1-dioxide]
93000	8	C=CCC1(Sc2nc(=O)c(OC(c3ccccc3)c3ccccc3)nn2C)C(C)=C(C(=O)C(C)(C)C)N2C(=O)[C@H](OC)[C@H]2S1(=O)=O (stereo partly drawn) [Compound 24, 2-allyl-2-(6-benzhydryloxy-2,5-dihydro-2-methyl-5-oxo-1,2,4-triazin-3-yl)thio-4-tert-butylcarbonyl-7α-methoxy-3-methyl-3-cephem 1,1-dioxide]
110000	4	CO[C@H]1C(=O)N2C(C(=O)C(C)(C)C)=C(C)C(Cc3ccccc3)(Sc3nnnn3C)S(=O)(=O)[C@H]12 (stereo partly drawn) [Compound 10, 2-Benzyl-4-tert-butylcarbonyl-7α-methoxy-3-methyl-2-(1-methyl-1,2,3,4-tetrazol-5-yl)thio-3-cephem 1,1-dioxide]
37000	30	CO[C@H]1C(=O)N2C(C(=O)C(C)(C)C)=C(C)C(C)(Sc3nc(=O)c(O)nn3C)S(=O)(=O)[C@H]12 (stereo partly drawn) [Compound 12, 2-(2,5-Dihydro-6-hydroxy-2-methyl-5-oxo-1,2,4-triazin-3-yl)thio-4-tert-butylcarbonyl-2,3-dimethyl-7α-methoxy-3-cephem 1,1-dioxide]
14000	16	CO[C@H]1C(=O)N2C(C(=O)C(C)(C)C)=C(C)C(Cc3ccccc3)(Sc3nc(=O)c(O)nn3C)S(=O)(=O)[C@H]12 (stereo partly drawn) [Compound 18, 2-Benzyl-2-(2,5-dihydro-6-hydroxy-2-methyl-5-oxo-1,2,4-triazin-3-yl)thio-4-tert-butylcarbonyl-7α-methoxy-3-methyl-3-cephem 1,1-dioxide]
1500		CO[C@H]1C(=O)N2C(C(=O)N3CCCC3)=C(CSc3nc(=O)c(O)nn3C)CS(=O)(=O)[C@H]12 [Ref. 3, reference compound]
	93	CO[C@H]1C(=O)N2C(C(=O)C(C)(C)C)=C(CSc3nnnn3C)C(Sc3nnnn3C)S(=O)(=O)C12 (some centres unmarked) [Ref. 2, reference compound]
360000	3	C=CCC1(Sc2nnnn2C)C(C)=C(C(=O)C(C)(C)C)N2C(=O)[C@H](OC)[C@H]2S1(=O)=O (stereo partly drawn) [Compound 7, 2-Allyl-4-tert-butylcarbonyl-7α-methoxy-3-methyl-2-(1-methyl-1,2,3,4-tetrazol-5-yl)thio-3-cephem 1,1-dioxide]
560000	1.3	C=CCOC(=O)c1ccc(CC2(Sc3nnnn3C)C(C)=C(C(=O)C(C)(C)C)N3C(=O)[C@H](OC)[C@H]3S2(=O)=O)cc1 (stereo partly drawn) [Compound 31, 2-(4-allyloxycarbonylbenzyl)-4-tert-butylcarbonyl-7α-methoxy-3-methyl-2-(1-methyl-1,2,3,4-tetrazol-5-yl)thio-3-cephem 1,1-dioxide]
570000	1.9	CO[C@H]1C(=O)N2C(C(=O)C(C)(C)C)=C(C)C(C)(Sc3nnnn3C)S(=O)(=O)[C@H]12 (stereo partly drawn) [Compound 5, 4-tert-Butylcarbonyl-2,3-dimethyl-7α-methoxy-2-(1-methyl-1,2,3,4-tetrazol-5-yl)thio-3-cephem 1,1-dioxide]
1.4e+06		COc1nn(C)c(SC2(C)C(C)=C(C(=O)C(C)(C)C)N3C(=O)[C@H](OC)[C@H]3S2(=O)=O)nc1=O (stereo partly drawn) [Compound 15, 2-(2,5-Dihydro-6-methoxy-2-methyl-5-oxo-1,2,4-triazin-3-yl)thio-4-tert-butylcarbonyl-2,3-dimethyl-7α-methoxy-3-cephem 1,1-dioxide]
